Experiment: UV absorption of 5 ppm Octylmethoxy Cinnamate dissolved in different oil bodies (absorption increase)
Type: physicochemical
Conditions: for Absorptionssteigerung: 5 ppm Octylmethoxy Cinnamate in the oil body, 1-cm cuvette, 308 nm, absorption in Mineralöl taken as 100 %
Source text: Zur Bestimmung der Absorptionssteigerung wurden Lösungen von 5 ppm Octylmethoxy Cinnamate in verschiedenen Ölkörpern hergestellt und die UV-Absorption in einer 1-cm Küvette bei einer Wellenlänge von 308 nm bestimmt. Die Absorption in Mineralöl wurde dazu als 100 % angenommen und alle übrigen Absorptionen dazu ins Verhältnis gesetzt. Des weiteren wurden verschiedene UV-Filter (OT = Octyl Triazone; BMDBM = Butyl Methoxydibenzoylmethane; B3 = Benzophenone-3 und 4MBC = 4-Methylbenzyliden Camphor) in den Ölkörpern in der Wärme gelöst und die Löslichkeit bei 15°C bestimmt. Die Ergebnisse sind in Tabelle 1 zusammengefaßt. Tabelle 1

Absorptionssteigerung	UV-Absorption unterstützt (result in words, comparison of all tested oil bodies)	SMILES
117%	am stärksten	CCCCOC(=O)CCCCC(=O)OCCCC [Dibutyl Adipate]
105%		CCCCCCCCOCCCCCCCC [Dicaprylyl Ether, reference compound]

From patent EP0950398A2, “Use of esters as dispersants or solvents in sunscreens and solar protection pigments” (Henkel Kommanditgesellschaft auf Aktien, priority 1998, dated 1999)
